pEC50: −log10 of the molar value.
Columns and labels:
[1] = molecular target: T1, Full-length phosphorylated PDK1 (Homo sapiens, UniProt O15530); assay: Fluorescence polarization PIF-tide binding assay; conditions: PDK1 saturating amounts of compound, FIG. 13C
T1 sequence (O15530 1-556): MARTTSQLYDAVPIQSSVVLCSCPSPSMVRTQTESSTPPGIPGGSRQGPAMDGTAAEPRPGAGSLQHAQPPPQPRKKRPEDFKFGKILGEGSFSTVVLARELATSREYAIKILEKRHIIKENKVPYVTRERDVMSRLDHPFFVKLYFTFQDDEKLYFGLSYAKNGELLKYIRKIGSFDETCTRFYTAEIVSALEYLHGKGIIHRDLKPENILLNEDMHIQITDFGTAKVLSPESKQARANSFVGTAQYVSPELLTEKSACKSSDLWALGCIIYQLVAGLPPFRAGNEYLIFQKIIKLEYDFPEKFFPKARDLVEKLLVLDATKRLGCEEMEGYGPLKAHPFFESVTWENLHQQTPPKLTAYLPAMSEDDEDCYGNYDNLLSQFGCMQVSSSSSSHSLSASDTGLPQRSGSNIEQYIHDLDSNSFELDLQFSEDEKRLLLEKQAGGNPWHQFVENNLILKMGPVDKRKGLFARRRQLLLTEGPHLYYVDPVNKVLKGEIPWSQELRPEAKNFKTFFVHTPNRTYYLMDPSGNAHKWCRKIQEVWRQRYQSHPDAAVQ

Molm-13 = assay: MTS cell proliferation assay, Molm-13; type: cell-based; conditions: Homo sapiens; Molm-13, 72 hr
Procedure: (§1) Cell proliferation was measured using the CellTiter 96 Aqueous Non-Radioactive Cell Proliferation Assay (Promega). The CellTiter 96® AQueous Assay is composed of solutions of a tetrazolium compound [3-(4,5-dimethylthiazol-2-yl)-5-(3-carboxymethoxyphenyl)-2-(4-sulfophenyl)-2H-tetrazolium, inner salt; MTS] and an electron coupling reagent (phenazine methosulfate) PMS. MTS is bioreduced by cells into a formazan product that is soluble in tissue culture medium. The absorbance of the formazan product at 490 nm can be measured directly from assay plates without additional processing. The quantity of formazan product as measured by the amount of 490 nm absorbance is directly proportional to the number of living cells in culture. Cells were seeded into 96-well or 384-well clear plates in a volume of 200 μL (96-well) or 50 μL (384-well) at optimized densities ranging from 1,000 to 40,000 cells per well for 96-well plates or 1,200 to 25,000 cells per well for 384-well plates depending on cell-line. After 4-6 hr recovery, serially diluted compounds in DMSO were added to the cells using (0.1% v/v final DMSO concentration). Cells were then grown at 37° C. in a humidified incubator with 5% CO2 for 72 hr. A 20:1 [3-(4,5-dimethylthiazol-2-yl)-5-(3-carboxymethoxyphenyl)-2-(4-sulfophenyl)-2H-tetrazolium](MTS):phenazine methosulfate (PMS) solution in DPBS was made immediately before use, added to each well, and cells were incubated for 1.5 hr at 37° C. The absorbance at 490 nm was then measured using a platereader. Absorbance values were normalized as percent of control (cells incubated in the presence of 0.1% v/v DMSO). Sigmoidal dose-response curves were plotted using log(inhibitor) vs. response—Variable slope (four parameters) model with a top value constrained to 100% (GraphPad Prism version 6.00 for Windows, GraphPad Software, La Jolla California USA). […] Curves for compounds that reached a plateau were matched exactly to the measurement points. […] To determine potential of compounds of the invention to affect viability of hematological cancers, cell lines representing various tumor types were selected and tested. Human cell lines tested were: MOLM-13 (acute myeloid leukemia (AML)), MV4-11 (AML), U-2932 (ABC-diffuse large B cell lymphoma), U-937 (histiocytic lymphoma), U-266 (multiple myeloma), RPMI-8226 (multiple myeloma), CMK (megakaryoblastic cell line), SU-DHL-4 (GCB-diffuse large B cell lymphoma), KG1 (AML), Mec-1 (chronic B-cell leukemia), MOLM-16 (AML), Jeko (B-cell lymphoma), WSU-DLCL2 (B-cell lymphoma), JJN3 (plasma cell leukemia), SU-DHL-6 (GCB-diffuse large B cell lymphoma), and Z-138 (mantle cell lymphoma). In addition, two murine cell lines were tested: A20 […].

MV4-11 = assay: MTS cell proliferation assay, MV4-11; type: cell-based, human; conditions: Homo sapiens; MV4-11, 72 hr; read-out: MTS proliferation assay
Procedure: Cell proliferation was measured using the CellTiter 96 Aqueous Non-Radioactive Cell Proliferation Assay (Promega). […] MTS is bioreduced by cells into a formazan product that is soluble in tissue culture medium. The absorbance of the formazan product at 490 nm can be measured directly from assay plates without additional processing. The quantity of formazan product as measured by the amount of 490 nm absorbance is directly proportional to the number of living cells in culture. Cells were seeded into 96-well or 384-well clear plates in a volume of 200 μL (96-well) or 50 μL (384-well) at optimized densities ranging from 1,000 to 40,000 cells per well for 96-well plates or 1,200 to 25,000 cells per well for 384-well plates depending on cell-line. After 4-6 hr recovery, serially diluted compounds in DMSO were added to the cells using (0.1% v/v final DMSO concentration). Cells were then grown at 37° C. in a humidified incubator with 5% CO2 for 72 hr. A 20:1 [3-(4,5-dimethylthiazol-2-yl)-5-(3-carboxymethoxyphenyl)-2-(4-sulfophenyl)-2H-tetrazolium](MTS):phenazine methosulfate (PMS) solution in DPBS was made immediately before use, added to each well, and cells were incubated for 1.5 hr at 37° C. The absorbance at 490 nm was then measured using a platereader. Absorbance values were normalized as percent of control (cells incubated in the presence of 0.1% v/v DMSO). Sigmoidal dose-response curves were plotted using log(inhibitor) vs. response—Variable slope (four parameters) model with a top value constrained to 100% (GraphPad Prism version 6.00 for Windows, GraphPad Software, La Jolla California USA). […] To determine potential of compounds of the invention to affect viability of hematological cancers, cell lines representing various tumor types were selected and tested. […] In addition, two murine cell lines were tested: A20 […].

U-2932 = assay: MTS cell proliferation assay, U-2932; type: cell-based; conditions: Homo sapiens, U2932; U-2932, 72 hr
Procedure: as §1

U-937 = assay: MTS cell proliferation assay, U-937; type: cell-based; conditions: Homo sapiens; U-937, 72 hr
Procedure: (§2) Cell proliferation was measured using the CellTiter 96 Aqueous Non-Radioactive Cell Proliferation Assay (Promega). The CellTiter 96® AQueous Assay is composed of solutions of a tetrazolium compound [3-(4,5-dimethylthiazol-2-yl)-5-(3-carboxymethoxyphenyl)-2-(4-sulfophenyl)-2H-tetrazolium, inner salt; MTS] and an electron coupling reagent (phenazine methosulfate) PMS. MTS is bioreduced by cells into a formazan product that is soluble in tissue culture medium. The absorbance of the formazan product at 490 nm can be measured directly from assay plates without additional processing. The quantity of formazan product as measured by the amount of 490 nm absorbance is directly proportional to the number of living cells in culture. Cells were seeded into 96-well or 384-well clear plates in a volume of 200 μL (96-well) or 50 μL (384-well) at optimized densities ranging from 1,000 to 40,000 cells per well for 96-well plates or 1,200 to 25,000 cells per well for 384-well plates depending on cell-line. After 4-6 hr recovery, serially diluted compounds in DMSO were added to the cells using (0.1% v/v final DMSO concentration). Cells were then grown at 37° C. in a humidified incubator with 5% CO2 for 72 hr. A 20:1 [3-(4,5-dimethylthiazol-2-yl)-5-(3-carboxymethoxyphenyl)-2-(4-sulfophenyl)-2H-tetrazolium](MTS):phenazine methosulfate (PMS) solution in DPBS was made immediately before use, added to each well, and cells were incubated for 1.5 hr at 37° C. The absorbance at 490 nm was then measured using a platereader. Absorbance values were normalized as percent of control (cells incubated in the presence of 0.1% v/v DMSO). Sigmoidal dose-response curves were plotted using log(inhibitor) vs. response—Variable slope (four parameters) model with a top value constrained to 100% (GraphPad Prism version 6.00 for Windows, GraphPad Software, La Jolla California USA). […] Curves for compounds that reached a plateau were matched exactly to the measurement points. […]

U-266 = assay: MTS cell proliferation assay, U-266; type: cell-based; conditions: Homo sapiens; U-266, 72 hr
Procedure: as §2

RPMI-8226 = assay: MTS cell proliferation assay, RPMI-8226; type: cell-based; conditions: Homo sapiens; RPMI-8226, 72 hr
Procedure: as §1

CMK = assay: MTS cell proliferation assay, CMK; type: cell-based; conditions: Homo sapiens, 72 hr
Procedure: as §2

SU-DHL-4 = assay: MTS cell proliferation assay, SU-DHL-4; type: cell-based; conditions: Homo sapiens; SU-DHL-4, 72 hr
Procedure: as §2

KG1 = assay: MTS cell proliferation assay, KG1; type: cell-based; conditions: Homo sapiens, KG-1; KG1, 72 hr
Procedure: as §2

Mec-1 = assay: MTS cell proliferation assay, Mec-1; type: cell-based; conditions: Homo sapiens, MEC1; Mec-1, 72 hr
Procedure: as §2

MOLM-16 = assay: MTS cell proliferation assay, MOLM-16; type: cell-based; conditions: Homo sapiens, MOLM16; MOLM-16, 72 hr
Procedure: as §2

Jeko = assay: MTS cell proliferation assay, Jeko; type: cell-based; conditions: Homo sapiens, 72 hr
Procedure: as §1

WSU-DLCL2 = assay: MTS cell proliferation assay, WSU-DLCL2; type: cell-based; conditions: Homo sapiens, WSUDLCL2; WSU-DLCL2, 72 hr
Procedure: as §2

JJN3 = assay: MTS cell proliferation assay, JJN3; type: cell-based; conditions: Homo sapiens, JJN-3; JJN3, 72 hr
Procedure: as §2

SU-DHL-6 = assay: MTS cell proliferation assay, SU-DHL-6; type: cell-based; conditions: Homo sapiens; SU-DHL-6, 72 hr
Procedure: as §2

Z-138 = assay: MTS cell proliferation assay, Z-138; type: cell-based; conditions: Homo sapiens; Z-138, 72 hr
Procedure: as §2

[2] = test system: hematologic tumor cell lines; assay: MTS cell proliferation assay, panel of hematologic cancer cell lines; type: cell-based; conditions: range against the various cell lines of Table 1; read-out: inhibition of cell proliferation EC50
Procedure: as §1

pEC50 (Molm-13)	pEC50 (MV4-11)	pEC50 (U-937)	pEC50 (RPMI-8226)	pEC50 (SU-DHL-4)	pEC50 (MOLM-16)	pEC50 (SU-DHL-6)	pEC50 [2]	Structure (SMILES)	PIF-tide binding to PDK1 (fluorescence polarization, words) [1]	pEC50 (U-2932)	pEC50 (U-266)	pEC50 (CMK)	pEC50 (KG1)	pEC50 (Mec-1)	pEC50 (Jeko)	pEC50 (WSU-DLCL2)	pEC50 (JJN3)	pEC50 (Z-138)
–	–	–	–	–	–	–	–	O=C(NCCCNc1nc(Nc2cccc(NC(=O)N3CCCC3)c2)ncc1I)c1cccs1 [BX-795, reference compound]	no interference with PIF-tide binding	–	–	–	–	–	–	–	–	–
8.30	7.92	6.95	6.70	6.39	6.54	6.34	6.07 to 8.52	C[C@H](NC(=O)c1nc(C#N)cnc1NCc1ccc(-c2cnc3[nH]nc(N)c3c2)cc1)c1ccc(F)c(F)c1 [Compound 3, 3-[4-(3-Amino-1H-pyrazolo[3,4-b]pyridin-5-yl)-benzylamino]-6-cyano-pyrazine-2-carboxylic acid [1-(3,4-difluoro-phenyl)-ethyl]-amide]	significant inhibition of PIF-tide binding	6.94	6.84	6.56	6.71	6.39	6.60	6.32	6.07	6.12

— patent publication US20240207258A1, “HETEROCYCLIC PDK1 INHIBITORS FOR USE TO TREAT CANCER” (Viracta Therapeutics, Inc., priority 2015, published 2024)
